Source: the supplement of paper PMC10307832

How the values were obtained:
Experiment in all cases: relative viability (nuclei count vs DMSO), 5 days (fraction); higher = more cells survive
[1] = compound: CC1(COc2ccc3c(c2)ncn3-c2ccc3cccc(N4CCC(N)CC4)c3n2)COC1 [Crenolanib] + Cc1nc(Nc2ncc(C(=O)Nc3c(C)cccc3Cl)s2)cc(N2CCN(CCO)CC2)n1 [Dasatinib] (partner 0.075 µM)
In short: (§1)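 A single step with final 0.05% Triton X-100, 1% formaldehyde and 1 ug/ml Hoechst fixed the cells and stained nuclei 5 days after treatment. Lung cancer cell lines in 1536-well plates had been treated by pin tool the day after seeding with one drug alone or a fixed anchor-drug dose plus five library-drug doses (not always all listed) in √10 steps, and nuclei were counted on 4× images. Relative viability is the ratio of nuclei in treated wells to nuclei in vehicle wells, taken as the median of duplicate plates.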

[2] = compound: O=C1NC(=O)[C@@H](c2cn3c4c(cccc24)CCC3)[C@@H]1c1c[nH]c2ccccc12 [Tivantinib] + CC(C)C[C@H](NC(=O)[C@H](Cc1ccccc1)NC(=O)c1cnccn1)B(O)O [Bortezomib] (partner 0.002 µM)
In short: as §1

[3] = compound: O=C1NC(=O)[C@@H](c2cn3c4c(cccc24)CCC3)[C@@H]1c1c[nH]c2ccccc12 [Tivantinib] + Nc1nc2[nH]cc(CCc3ccc(C(=O)N[C@@H](CCC(=O)O)C(=O)O)cc3)c2c(=O)[nH]1 [Pemetrexed] (partner 0.2 µM)
In short: as §1

[4] = compound: O=C1NC(=O)[C@@H](c2cn3c4c(cccc24)CCC3)[C@@H]1c1c[nH]c2ccccc12 [Tivantinib] + Cc1cc(Nc2cc(N3CCN(C)CC3)nc(Sc3ccc(NC(=O)C4CC4)cc3)n2)n[nH]1 [Tozasertib] (partner 0.1 µM)
In short: as §1

Cell Line | relative viability ([1]; first compound 0.01 µM) | relative viability ([1]; first compound 0.03162 µM) | relative viability ([1]; first compound 0.1 µM) | relative viability ([1]; first compound 0.3162 µM) | relative viability ([1]; first compound 1 µM) | relative viability ([2]; first compound 0.01 µM) | relative viability ([2]; first compound 0.03162 µM) | relative viability ([2]; first compound 0.3162 µM) | relative viability ([3]; first compound 0.01 µM) | relative viability ([3]; first compound 0.03162 µM) | relative viability ([3]; first compound 0.1 µM) | relative viability ([3]; first compound 0.3162 µM) | relative viability ([4]; first compound 0.01 µM) | relative viability ([4]; first compound 0.03162 µM) | relative viability ([4]; first compound 0.1 µM) | relative viability ([4]; first compound 0.3162 µM) | relative viability ([2]; first compound 0.1 µM)
NCI-H441 | 0.555 | 0.669 | 0.601 | 0.681 | 0.578 | 0.525 | 0.651 | 0.449 | 0.294 | 0.254 | 0.254 | 0.282 | 0.587 | 0.655 | 0.552 | 0.474 | 
NCI-H460 | 0.506 | 0.461 | 0.531 | 0.565 | 0.522 | 1.06 | 1.04 | 1.36 | 0.059 | 0.0663 | 0.0596 | 0.0576 | 0.405 | 0.31 | 0.368 | 0.299 | 0.975
NCI-H520 | 0.244 | 0.194 | 0.197 | 0.244 | 0.309 | 0.687 | 0.235 | 0.595 | 0.695 | 0.716 | 0.631 | 0.652 | 0.471 | 0.494 | 0.395 | 0.434 | 0.505
NCI-H596 | 0.716 | 0.655 | 0.627 | 0.675 | 0.538 | 1.19 | 1.09 | 0.936 | 0.503 | 0.406 | 0.453 | 0.426 | 1.05 | 0.819 | 0.929 | 0.799 | 1.78
NCI-H647 | 0.175 | 0.209 | 0.196 | 0.189 | 0.201 | 0.977 | 0.848 | 1.14 | 0.17 | 0.192 | 0.18 | 0.184 | 0.38 | 0.265 | 0.306 | 0.137 | 0.775
NCI-H650 | 0.493 | 0.472 | 0.425 | 0.404 | 0.356 | 0.723 |  | 0.874 | 1.19 | 0.842 | 0.839 | 0.909 | 0.857 | 0.61 | 0.802 | 0.585 | 0.772
NCI-H661 | 0.958 | 0.845 | 0.864 | 0.992 | 1.09 | 0.897 | 0.782 |  | 0.922 | 0.961 | 0.975 | 0.844 | 0.365 | 0.363 | 0.354 | 0.356 | 0.9
NCI-H838 | 0.262 | 0.294 | 0.273 | 0.28 | 0.219 | 0.712 | 0.61 | 0.786 | 0.253 | 0.258 | 0.239 | 0.227 | 0.26 | 0.273 | 0.262 | 0.322 | 0.683
NCI-H1355 | 0.733 | 0.704 | 0.681 | 0.718 | 0.488 | 1.31 | 1.18 | 1.21 | 1.03 | 1.01 | 1 | 1.03 | 0.561 | 0.488 | 0.541 | 0.489 | 1.17
NCI-H1437 | 0.403 | 0.369 | 0.361 | 0.377 | 0.42 | 0.503 | 0.344 | 0.434 | 0.336 | 0.319 | 0.315 | 0.298 | 0.426 | 0.386 | 0.391 | 0.422 | 0.425
NCI-H1650 | 0.301 | 0.338 | 0.29 | 0.285 | 0.32 | 0.215 | 0.213 | 0.176 | 0.417 | 0.4 | 0.471 | 0.315 | 0.411 | 0.467 | 0.357 | 0.434 | 0.225
NCI-H1651 | 0.504 | 0.377 | 0.373 | 0.531 | 0.336 | 0.957 | 1.03 | 0.942 | 0.553 | 0.548 | 0.572 | 0.58 | 0.617 | 0.678 | 0.672 | 0.71 | 0.918
NCI-H1666 | 0.791 | 0.854 | 0.745 | 0.819 | 0.745 | 0.856 | 0.828 | 0.803 | 0.841 | 0.867 | 0.853 | 0.673 | 0.624 | 0.612 | 0.606 | 0.526 | 0.744
NCI-H1734 | 0.502 | 0.427 | 0.468 | 0.465 | 0.453 | 0.932 | 1.01 | 1 | 0.43 | 0.352 | 0.417 | 0.432 | 0.273 | 0.278 | 0.252 | 0.247 | 0.843
NCI-H1755 | 0.465 | 0.472 | 0.395 | 0.437 | 0.384 | 0.974 | 0.94 | 1.01 | 0.475 | 0.381 | 0.358 | 0.439 | 0.525 | 0.602 | 0.507 | 0.608 | 0.934
NCI-H1915 | 0.306 | 0.271 | 0.304 | 0.294 | 0.223 | 0.982 | 0.961 | 0.975 | 0.423 | 0.482 | 0.495 | 0.53 | 0.427 | 0.412 | 0.422 | 0.391 | 0.946

Cell Line | relative viability ([1]; first compound 0.01 µM) | relative viability ([1]; first compound 0.03162 µM) | relative viability ([1]; first compound 0.1 µM) | relative viability ([1]; first compound 0.3162 µM) | relative viability ([1]; first compound 1 µM) | relative viability ([2]; first compound 0.01 µM) | relative viability ([2]; first compound 0.03162 µM) | relative viability ([2]; first compound 0.3162 µM) | relative viability ([3]; first compound 0.01 µM) | relative viability ([3]; first compound 0.03162 µM) | relative viability ([3]; first compound 0.1 µM) | relative viability ([3]; first compound 0.3162 µM) | relative viability ([4]; first compound 0.01 µM) | relative viability ([4]; first compound 0.03162 µM) | relative viability ([4]; first compound 0.1 µM) | relative viability ([4]; first compound 0.3162 µM) | relative viability ([2]; first compound 0.1 µM)
NCI-H1975 | 0.412 | 0.348 | 0.352 | 0.395 | 0.408 | 0.411 | 0.366 | 0.405 | 0.294 | 0.287 | 0.249 | 0.27 | 0.773 | 0.744 | 0.645 | 0.714 | 0.442
NCI-H1993 | 0.621 | 0.63 | 0.588 | 0.623 | 0.429 | 1.16 | 1.05 | 0.79 | 0.621 | 0.53 | 0.586 | 0.541 | 0.541 | 0.595 | 0.543 | 0.51 | 1.14
NCI-H2009 | 0.323 | 0.297 | 0.257 | 0.294 | 0.227 | 1.01 | 0.646 | 1.1 | 1.01 | 1.12 | 1.04 | 1.08 | 0.734 | 0.696 | 0.755 | 0.651 | 1.01
NCI-H2023 | 0.656 | 0.603 | 0.669 | 0.743 | 0.567 | 1.06 | 0.654 | 0.826 | 0.278 | 0.206 | 0.253 | 0.191 | 0.337 | 0.325 | 0.268 | 0.308 | 0.915
NCI-H2085 | 0.27 | 0.26 | 0.263 | 0.216 | 0.315 | 0.994 | 0.972 | 1.06 | 0.975 | 0.773 | 0.876 | 0.75 | 0.764 | 0.798 | 0.755 | 0.749 | 1.02
NCI-H2087 | 0.809 | 1.03 | 0.694 | 1.07 | 0.818 | 0.759 | 0.639 | 0.893 | 0.645 | 0.78 | 0.58 | 0.603 | 0.311 | 0.257 | 0.235 | 0.3 | 0.664
NCI-H2126 | 0.595 | 0.635 | 0.604 | 0.74 | 0.616 | 1.09 | 1.11 | 1.06 | 0.677 | 0.633 | 0.706 | 0.547 | 0.91 | 0.785 | 0.831 | 0.538 | 1.09
NCI-H2228 | 0.488 | 0.555 | 0.519 | 0.46 | 0.518 | 0.886 | 0.908 | 0.932 | 0.363 | 0.319 | 0.329 | 0.352 |  | 0.356 | 0.221 | 0.214 | 1.13
NCI-H2347 | 0.31 |  |  | 0.278 | 0.295 | 1.07 | 1.01 | 1.01 | 0.405 | 0.454 | 0.394 | 0.419 | 0.71 | 0.6 | 0.53 | 0.624 | 1.13
NCI-H2405 | 0.225 | 0.214 |  | 0.181 | 0.196 | 0.582 | 0.982 | 0.976 | 1.12 | 1.25 | 1.09 | 1.05 | 0.759 | 0.782 | 0.756 | 0.707 | 0.848
NCI-H3122 | 0.862 | 0.73 | 0.782 | 0.963 | 0.972 | 1.05 | 1.03 | 0.995 | 0.179 | 0.199 | 0.196 | 0.162 | 0.409 | 0.36 | 0.508 | 0.146 | 1.04
PC-3 [JPC-3] | 0.989 | 0.974 | 0.974 | 1.12 | 1.06 | 0.839 | 0.899 | 0.667 | 1.24 | 1.27 | 1.21 | 0.72 | 0.877 | 0.902 | 0.945 | 0.705 | 0.863
PC-14 | 0.289 | 0.262 | 0.259 | 0.263 | 0.266 | 0.873 | 0.917 | 0.822 | 0.142 | 0.123 | 0.147 | 0.103 | 0.635 | 0.558 | 0.594 | 0.379 | 0.777
RERF-LC-KJ | 0.81 | 0.961 | 0.933 | 0.956 | 0.733 | 1.18 | 1.22 | 0.963 | 0.38 | 0.452 | 0.445 | 0.44 | 0.539 | 0.532 | 0.473 | 0.403 | 1.19
SK-LU-1 | 0.198 | 0.182 | 0.159 | 0.194 | 0.172 | 1.07 | 0.954 | 1.05 | 0.935 | 1.06 | 0.96 | 1.04 | 0.331 | 0.357 | 0.312 | 0.323 | 1.32
SW 1573 | 0.539 | 0.48 | 0.591 | 0.558 | 0.553 | 1.16 | 1.17 | 1.29 | 0.918 | 0.797 | 0.818 | 0.76 | 0.23 | 0.262 | 0.177 | 0.127 | 1.1
